Measurements taken from ChEMBL document CHEMBL1201862, “PubChem BioAssay data set” (2004).
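All cell lines were grown in 96-well plates and treated with compound for 48 hours. The concentration for 50% growth inhibition is given as GI50.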 Activity calls are given as the source filed them. Rule as the data show it: active = GI50 up to about 1.1 µM and inactive = higher.

How the values were obtained:
Assay in all cases: inhibition of tumour cell growth, NCI panel, 48 h
MDA-N = test system: MDA-N
HOP-92 = test system: HOP-92
OVCAR-8 = test system: OVCAR-8
SNB-75 = test system: SNB-75
DU-145 = test system: DU-145
UO-31 = test system: UO-31
A549 = test system: A549
M14 = test system: M14
SK-OV-3 = test system: SK-OV-3
HCT-116 = test system: HCT-116
NCI/ADR-RES = test system: NCI/ADR-RES
786-0 = test system: 786-0
RPMI-8226 = test system: RPMI-8226
OVCAR-3 = test system: OVCAR-3
NCI-H460 = test system: NCI-H460
MOLT-4 = test system: MOLT-4
SW-620 = test system: SW-620
SNB-19 = test system: SNB-19
TK-10 = test system: TK-10
M19-MEL = test system: M19-MEL

Row | SMILES | GI50 (MDA-N) | GI50 (HOP-92) | GI50 (OVCAR-8) | GI50 (SNB-75) | GI50 (DU-145) | GI50 (UO-31) | GI50 (A549) | GI50 (M14) | GI50 (SK-OV-3) | GI50 (HCT-116) | GI50 (NCI/ADR-RES) | GI50 (786-0) | GI50 (RPMI-8226) | GI50 (OVCAR-3) | GI50 (NCI-H460) | GI50 (MOLT-4) | GI50 (SW-620) | GI50 (SNB-19) | GI50 (TK-10) | GI50 (M19-MEL)
1 | COc1cccc2nc3c(C(=O)NCCN(C)C)cccc3cc12 | 2.18 µM (inactive) | 1.21 µM (inactive) | 1.26 µM (inactive) | 4.88 µM (inactive) | 5.74 µM (inactive) | 1.11 µM (active) | 0.473 µM (active) | 1.64 µM (inactive) | 1.43 µM (inactive) | 1.34 µM (inactive) | 2.71 µM (inactive) | 1.16 µM (inactive) | 1.21 µM (inactive) | 3.14 µM (inactive) | 0.195 µM (active) | 0.325 µM (active) | 1.09 µM (active) | 2.35 µM (inactive) | 2.57 µM (inactive) | –
2 | NC(=O)c1ccc(C(=O)Nc2ccc([As](=O)(O)O)cc2)cc1 | > 100 µM (inactive) | > 100 µM (inactive) | > 100 µM (inactive) | > 100 µM (inactive) | > 100 µM (inactive) | > 100 µM (inactive) | > 100 µM (inactive) | > 100 µM (inactive) | > 100 µM (inactive) | > 100 µM (inactive) | > 100 µM (inactive) | > 100 µM (inactive) | > 100 µM (inactive) | > 100 µM (inactive) | > 100 µM (inactive) | > 100 µM (inactive) | > 100 µM (inactive) | > 100 µM (inactive) | > 100 µM (inactive) | –
3 | O=C1NC(=O)C(C(=O)C(=O)Nc2cccc(C(F)(F)F)c2)C(=O)N1 | – | – | > 100 µM (inactive) | 52.8 µM (inactive) | – | > 100 µM (inactive) | > 100 µM (inactive) | > 100 µM (inactive) | > 100 µM (inactive) | > 100 µM (inactive) | – | > 100 µM (inactive) | > 100 µM (inactive) | > 100 µM (inactive) | > 100 µM (inactive) | > 100 µM (inactive) | > 100 µM (inactive) | > 100 µM (inactive) | > 100 µM (inactive) | > 100 µM (inactive)
4 | CN(CCN(C)C(=O)CCn1cc(F)c(=O)[nH]c1=O)C(=O)CCn1cc(F)c(=O)[nH]c1=O | – | – | > 100 µM (inactive) | 36.2 µM (inactive) | – | > 100 µM (inactive) | > 100 µM (inactive) | > 100 µM (inactive) | – | > 100 µM (inactive) | – | > 100 µM (inactive) | > 100 µM (inactive) | > 100 µM (inactive) | > 100 µM (inactive) | > 100 µM (inactive) | > 100 µM (inactive) | > 100 µM (inactive) | > 100 µM (inactive) | > 100 µM (inactive)
5 | Cc1nn(-c2ccccc2)c2nc(N3CCOCC3)nnc12 | – | – | 92.5 µM (inactive) | 40.3 µM (inactive) | – | 28.6 µM (inactive) | 94.4 µM (inactive) | 97.1 µM (inactive) | > 100 µM (inactive) | > 100 µM (inactive) | – | > 100 µM (inactive) | 46.6 µM (inactive) | 88.7 µM (inactive) | > 100 µM (inactive) | 40.6 µM (inactive) | > 100 µM (inactive) | > 100 µM (inactive) | > 100 µM (inactive) | > 100 µM (inactive)
6 | COC(=O)C1=CON2C3CC4CC(C3)CC(C4)C12C (configuration not stated) | > 100 µM (inactive) | > 100 µM (inactive) | > 100 µM (inactive) | > 100 µM (inactive) | > 100 µM (inactive) | > 100 µM (inactive) | > 100 µM (inactive) | > 100 µM (inactive) | > 100 µM (inactive) | > 100 µM (inactive) | > 100 µM (inactive) | > 100 µM (inactive) | > 100 µM (inactive) | > 100 µM (inactive) | > 100 µM (inactive) | > 100 µM (inactive) | > 100 µM (inactive) | > 100 µM (inactive) | > 100 µM (inactive) | –
7 | CC(=O)OCC(OC(C)=O)C(OC(C)=O)C(OC(C)=O)C(=O)CNn1c(-c2ccc(C)cc2)nc2ccccc2c1=O (configuration not stated) | – | – | > 100 µM (inactive) | 53.1 µM (inactive) | – | > 100 µM (inactive) | > 100 µM (inactive) | > 100 µM (inactive) | > 100 µM (inactive) | > 100 µM (inactive) | – | > 100 µM (inactive) | 39.4 µM (inactive) | > 100 µM (inactive) | > 100 µM (inactive) | 82.8 µM (inactive) | > 100 µM (inactive) | > 100 µM (inactive) | – | > 100 µM (inactive)
8 | Cn1c(N/N=C/c2ccccc2)nc(-c2ccc3c(c2)OCO3)c(C#N)c1=O | > 100 µM (inactive) | 2.85 µM (inactive) | 22.8 µM (inactive) | > 100 µM (inactive) | 84.5 µM (inactive) | 77.3 µM (inactive) | 45.4 µM (inactive) | > 100 µM (inactive) | > 100 µM (inactive) | > 100 µM (inactive) | > 100 µM (inactive) | > 100 µM (inactive) | 47.1 µM (inactive) | 27.5 µM (inactive) | 87.7 µM (inactive) | 48.4 µM (inactive) | > 100 µM (inactive) | > 100 µM (inactive) | 69.7 µM (inactive) | –
9 | CCOC(=O)C1C(c2ccc(Br)cc2)N(Cc2ccccc2)C(c2ccc(Br)cc2)C(C(=O)OC)S1(=O)=O (configuration not stated) | – | – | 24.8 µM (inactive) | 21.3 µM (inactive) | – | 49.7 µM (inactive) | 76.9 µM (inactive) | 83.4 µM (inactive) | > 100 µM (inactive) | 25.2 µM (inactive) | – | 32.3 µM (inactive) | 32.7 µM (inactive) | > 100 µM (inactive) | > 100 µM (inactive) | > 100 µM (inactive) | > 100 µM (inactive) | 27.5 µM (inactive) | > 100 µM (inactive) | 74.6 µM (inactive)
10 | CCCNC(=O)C(C)(Cl)C(=O)c1ccccc1O (configuration not stated) | – | – | > 100 µM (inactive) | > 100 µM (inactive) | – | > 100 µM (inactive) | > 100 µM (inactive) | > 100 µM (inactive) | > 100 µM (inactive) | > 100 µM (inactive) | – | > 100 µM (inactive) | > 100 µM (inactive) | > 100 µM (inactive) | > 100 µM (inactive) | > 100 µM (inactive) | > 100 µM (inactive) | > 100 µM (inactive) | > 100 µM (inactive) | > 100 µM (inactive)
11 | O=C(Nc1ccccc1)c1cc(S(=O)(=O)Nc2n[nH]c(=O)n2-c2ccccc2)c(S)cc1Cl | > 100 µM (inactive) | > 100 µM (inactive) | > 100 µM (inactive) | > 100 µM (inactive) | > 100 µM (inactive) | > 100 µM (inactive) | > 100 µM (inactive) | > 100 µM (inactive) | > 100 µM (inactive) | > 100 µM (inactive) | > 100 µM (inactive) | > 100 µM (inactive) | > 100 µM (inactive) | > 100 µM (inactive) | > 100 µM (inactive) | > 100 µM (inactive) | > 100 µM (inactive) | > 100 µM (inactive) | > 100 µM (inactive) | –
12 | CCCCCNC(=O)C1C(=O)N(CCCCC)C(=O)/C1=N\N (configuration not stated) | – | 37.8 µM (inactive) | 49.2 µM (inactive) | – | – | 26.8 µM (inactive) | 77.6 µM (inactive) | 57.9 µM (inactive) | – | – | – | > 100 µM (inactive) | – | 46.8 µM (inactive) | 78.5 µM (inactive) | 40.8 µM (inactive) | 79.3 µM (inactive) | 35.2 µM (inactive) | > 100 µM (inactive) | 86.5 µM (inactive)
